In patent US4517002A (priority 1983, dated 1985):

Legend:
urease [1] = type: biochemical; details: pH 7.2
urease [2] = type: biochemical; details: pH 5.4

In the case of NP(N)(=O)OCC(F)(F)F [Experiment 1], the “% Inhibition Cazenovia Soil” value (urease [1]) is reported as 97% and the “% Inhibition Wisconsin Soil” value (urease [2]) is reported as 90%.
NP(N)(=O)OCC(Cl)(Cl)Cl [Experiment 2] was tested, and the “% Inhibition Cazenovia Soil” value (urease [1]) was 97% and the “% Inhibition Wisconsin Soil” value (urease [2]) was 87%.
NP(N)(=O)OCCBr [Experiment 3] was tested, and the “% Inhibition Cazenovia Soil” value (urease [1]) was 85%.
With NP(N)(=O)OCCCl [Experiment 4] the “% Inhibition Cazenovia Soil” value (urease [1]) was 84%.
For C=CCOP(N)(N)=O [Experiment 6], the “% Inhibition Cazenovia Soil” value (urease [1]) was 65% and the “% Inhibition Wisconsin Soil” value (urease [2]) was 38%.
For NP(N)(=O)OCc1ccccc1 [Experiment 7], the “% Inhibition Cazenovia Soil” value (urease [1]) was 69% and the “% Inhibition Wisconsin Soil” value (urease [2]) was 20%.
With NP(N)(=O)OCCCCl [Experiment 8] the “% Inhibition Cazenovia Soil” value (urease [1]) was 41% and the “% Inhibition Wisconsin Soil” value (urease [2]) was 22%.
For COP(N)(N)=O [Experiment 9], the “% Inhibition Cazenovia Soil” value (urease [1]) was 34%.
CCCOP(N)(N)=O [Experiment 10] was tested, and the “% Inhibition Cazenovia Soil” value (urease [1]) was 15%.
NP(N)(=O)OC1CCCCC1 [Experiment 11] was tested, and the “% Inhibition Cazenovia Soil” value (urease [1]) was 85%.
For NP(N)(=O)OC1C(Cl)(Cl)CCCC1(Cl)Cl [Experiment 12], the “% Inhibition Cazenovia Soil” value (urease [1]) was 38%.
